# Test results from paper PMC3545969, “Mutagenicity and antimutagenicity of (−)-hinokinin a trypanosomicidal compound measured by Salmonella microsome and comet assays” (BMC Complementary and Alternative Medicine, 2012).
# Where two headings read alike, the source gives them in different places. Marks after values point to notes of the source that are not given here.
# Tests used:
# [1] = test system: Salmonella typhimurium TA98
# [2] = test system: Salmonella typhimurium TA100
# [3] = test system: Salmonella typhimurium TA102
# [4] = test system: Salmonella typhimurium TA100; remark: listed apart in the source
# [5] = test system: Chinese hamster lung fibroblast V79 cells; parameters: method as in PMID 20452459; conditions: cited from earlier work
# [6] = TA 100, + S9, HK 19.5 μg/plate + AFB1 0.5 μg/plate
# [7] = TA 100, + S9, HK 39.0 μg/plate + AFB1 0.5 μg/plate
# [8] = TA 100, + S9, HK 58.5 μg/plate + AFB1 0.5 μg/plate
# [9] = TA 100, + S9, HK 78.0 μg/plate + AFB1 0.5 μg/plate
# [10] = TA 100, + S9, HK […] + AFB1 0.5 μg/plate
# [11] = TA 100, − S9, HK 19.5 μg/plate + SA 1.25 μg/plate
# [12] = TA 100, − S9, HK 39.0 μg/plate + SA 1.25 μg/plate
# [13] = TA 100, − S9, HK 58.5 μg/plate + SA 1.25 μg/plate
# [14] = TA 100, − S9, HK 78.0 μg/plate + SA 1.25 μg/plate
# [15] = TA 100, − S9, HK […] + SA 1.25 μg/plate
compound,measurement,setting,value
"O=C1OC[C@H](Cc2ccc3c(c2)OCO3)[C@H]1Cc1ccc2c(c1)OCO2 [HK, (−)-hinokinin]",MI (mutagenicity index),"[1]; TA 98, + S9, HK 19.5 μg/plate",1.1
same,Number of revertants(M ± SD)/ plate,"[1]; TA 98, + S9, HK 19.5 μg/plate",34 ± 3 revertants/plate
same,MI (mutagenicity index),"[1]; TA 98, + S9, HK 39.0 μg/plate",1.0
same,Number of revertants(M ± SD)/ plate,"[1]; TA 98, + S9, HK 39.0 μg/plate",33 ± 4 revertants/plate
same,MI (mutagenicity index),"[1]; TA 98, + S9, HK 58.5 μg/plate",0.8
same,Number of revertants(M ± SD)/ plate,"[1]; TA 98, + S9, HK 58.5 μg/plate",28 ± 1 revertants/plate
same,MI (mutagenicity index),"[1]; TA 98, + S9, HK 78.0 μg/plate",1.0
same,Number of revertants(M ± SD)/ plate,"[1]; TA 98, + S9, HK 78.0 μg/plate",31 ± 2 revertants/plate
same,MI (mutagenicity index),"[1]; TA 98, - S9, HK 19.5 μg/plate",1.0
same,Number of revertants(M ± SD)/ plate,"[1]; TA 98, - S9, HK 19.5 μg/plate",23 ± 3 revertants/plate
same,MI (mutagenicity index),"[1]; TA 98, - S9, HK 39.0 μg/plate",1.1
same,Number of revertants(M ± SD)/ plate,"[1]; TA 98, - S9, HK 39.0 μg/plate",25 ± 3 revertants/plate
same,MI (mutagenicity index),"[1]; TA 98, - S9, HK 58.5 μg/plate",1.1
same,Number of revertants(M ± SD)/ plate,"[1]; TA 98, - S9, HK 58.5 μg/plate",25 ± 2 revertants/plate
same,MI (mutagenicity index),"[1]; TA 98, - S9, HK 78.0 μg/plate",1.1
same,Number of revertants(M ± SD)/ plate,"[1]; TA 98, - S9, HK 78.0 μg/plate",24 ± 5 revertants/plate
same,% inhibition,[2]; [6],45*** %
same,Number of revertants(M ± SD)/ plate,[2]; [6],976 + 18 revertants/plate
same,% inhibition,[2]; [7],47*** %
same,Number of revertants(M ± SD)/ plate,[2]; [7],943 + 11 revertants/plate
same,% inhibition,[2]; [8],71*** %
same,Number of revertants(M ± SD)/ plate,[2]; [8],612 + 33 revertants/plate
same,% inhibition,[2]; [9],89*** %
same,Number of revertants(M ± SD)/ plate,[2]; [9],354 + 22 revertants/plate
same,% inhibition,[2]; [10],30** %
same,Number of revertants(M ± SD)/ plate,[2]; [10],1183 + 30 revertants/plate
same,effect on mutation induced by AFB1,"[2]; TA100, +S9",did inhibit mutation induced by the alkylating agent AFB1
same,effect on mutagenesis induced by SA,"[2]; TA100, absence of metabolic activation",did not reduce mutagenesis
same,% inhibition,[2]; [11],9* %
same,Number of revertants(M ± SD)/ plate,[2]; [11],1112 + 34 revertants/plate
same,% inhibition,[2]; [12],5* %
same,Number of revertants(M ± SD)/ plate,[2]; [12],1169 + 32 revertants/plate
same,% inhibition,[2]; [13],7* %
same,Number of revertants(M ± SD)/ plate,[2]; [13],1145 + 16 revertants/plate
same,% inhibition,[2]; [14],3* %
same,Number of revertants(M ± SD)/ plate,[2]; [14],1181 + 41 revertants/plate
same,% inhibition,[2]; [15],7* %
same,Number of revertants(M ± SD)/ plate,[2]; [15],1139 + 20 revertants/plate
same,Number of revertants(M ± SD)/ plate,"[3]; TA 102, + S9, HK 19.5 μg/plate",363 ± 3 revertants/plate
same,MI (mutagenicity index),"[3]; TA 102, + S9, HK 39.0 μg/plate",0.9
same,Number of revertants(M ± SD)/ plate,"[3]; TA 102, + S9, HK 39.0 μg/plate",354 ± 4 revertants/plate
same,MI (mutagenicity index),"[3]; TA 102, + S9, HK 58.5 μg/plate",1.0
same,Number of revertants(M ± SD)/ plate,"[3]; TA 102, + S9, HK 58.5 μg/plate",398 ± 9 revertants/plate
same,MI (mutagenicity index),"[3]; TA 102, + S9, HK 78.0 μg/plate",1.0
same,Number of revertants(M ± SD)/ plate,"[3]; TA 102, + S9, HK 78.0 μg/plate",402 ± 3 revertants/plate
same,Number of revertants(M ± SD)/ plate,"[3]; TA 102, - S9, HK 19.5 μg/plate",231 ± 8 revertants/plate
same,MI (mutagenicity index),"[3]; TA 102, - S9, HK 39.0 μg/plate",0.9
same,Number of revertants(M ± SD)/ plate,"[3]; TA 102, - S9, HK 39.0 μg/plate",213 ± 4 revertants/plate
same,MI (mutagenicity index),"[3]; TA 102, - S9, HK 58.5 μg/plate",0.8
same,Number of revertants(M ± SD)/ plate,"[3]; TA 102, - S9, HK 58.5 μg/plate",201 ± 6 revertants/plate
same,MI (mutagenicity index),"[3]; TA 102, - S9, HK 78.0 μg/plate",0.8
same,Number of revertants(M ± SD)/ plate,"[3]; TA 102, - S9, HK 78.0 μg/plate",186 ± 2 revertants/plate
same,MI (mutagenicity index),"[4]; TA 100, + S9, HK 19.5 μg/plate",1.0
same,Number of revertants(M ± SD)/ plate,"[4]; TA 100, + S9, HK 19.5 μg/plate",128 ± 6 revertants/plate
same,MI (mutagenicity index),"[4]; TA 100, + S9, HK 39.0 μg/plate",0.9
same,Number of revertants(M ± SD)/ plate,"[4]; TA 100, + S9, HK 39.0 μg/plate",115 ± 8 revertants/plate
same,MI (mutagenicity index),"[4]; TA 100, + S9, HK 58.5 μg/plate",1.1
same,Number of revertants(M ± SD)/ plate,"[4]; TA 100, + S9, HK 58.5 μg/plate",134 ± 2 revertants/plate
same,MI (mutagenicity index),"[4]; TA 100, + S9, HK 78.0 μg/plate",1.0
same,Number of revertants(M ± SD)/ plate,"[4]; TA 100, + S9, HK 78.0 μg/plate",120 ± 8 revertants/plate
same,MI (mutagenicity index),"[4]; TA 100, - S9, HK 19.5 μg/plate",1.0
same,Number of revertants(M ± SD)/ plate,"[4]; TA 100, - S9, HK 19.5 μg/plate",129 ± 6 revertants/plate
same,MI (mutagenicity index),"[4]; TA 100, - S9, HK 39.0 μg/plate",1.0
same,Number of revertants(M ± SD)/ plate,"[4]; TA 100, - S9, HK 39.0 μg/plate",134 ± 5 revertants/plate
same,MI (mutagenicity index),"[4]; TA 100, - S9, HK 58.5 μg/plate",0.8
same,Number of revertants(M ± SD)/ plate,"[4]; TA 100, - S9, HK 58.5 μg/plate",112 ± 3 revertants/plate
same,MI (mutagenicity index),"[4]; TA 100, - S9, HK 78.0 μg/plate",1.1
same,Number of revertants(M ± SD)/ plate,"[4]; TA 100, - S9, HK 78.0 μg/plate",140 ± 9 revertants/plate
same,"genotoxic effect, micronucleus test",[5]; HK alone,no genotoxic effect
same,"effect on chromosome damage caused by MMS, micronucleus test",[5],reduced the chromosome damage caused by MMS
same,"effect on DXR-induced clastogenicity, micronucleus test",[5]; higher concentrations of HK,potentiator of DXR-induced clastogenicity
same,"effect on DXR-induced clastogenicity, micronucleus test",[5]; lower concentrations of HK,reduction in DXR-induced clastogenicity
